Experimental data: patent EP4043466B1, “PRC2 INHIBITORS” (Mirati Therapeutics, Inc., priority 2018, dated 2019)

Key:
[1] = target: purified human, His-tagged PRC2 complex (Homo sapiens, UniProt O75530+Q15910); assay: Hot Spot HMT assay: inhibition of PRC2 enzymatic activity (transfer of tritiated methyl from SAM to core histone, filter binding); assay type: biochemical; conditions: Inhibition of PRC2-mediated enzymatic activity; 10 nM PRC2 complex, 0.05 mg/ml core histone H3, 1 uM 3H-SAM, 1 hr at 30°C
purified human, His-tagged PRC2 complex, sequence (Q15910 whole entry): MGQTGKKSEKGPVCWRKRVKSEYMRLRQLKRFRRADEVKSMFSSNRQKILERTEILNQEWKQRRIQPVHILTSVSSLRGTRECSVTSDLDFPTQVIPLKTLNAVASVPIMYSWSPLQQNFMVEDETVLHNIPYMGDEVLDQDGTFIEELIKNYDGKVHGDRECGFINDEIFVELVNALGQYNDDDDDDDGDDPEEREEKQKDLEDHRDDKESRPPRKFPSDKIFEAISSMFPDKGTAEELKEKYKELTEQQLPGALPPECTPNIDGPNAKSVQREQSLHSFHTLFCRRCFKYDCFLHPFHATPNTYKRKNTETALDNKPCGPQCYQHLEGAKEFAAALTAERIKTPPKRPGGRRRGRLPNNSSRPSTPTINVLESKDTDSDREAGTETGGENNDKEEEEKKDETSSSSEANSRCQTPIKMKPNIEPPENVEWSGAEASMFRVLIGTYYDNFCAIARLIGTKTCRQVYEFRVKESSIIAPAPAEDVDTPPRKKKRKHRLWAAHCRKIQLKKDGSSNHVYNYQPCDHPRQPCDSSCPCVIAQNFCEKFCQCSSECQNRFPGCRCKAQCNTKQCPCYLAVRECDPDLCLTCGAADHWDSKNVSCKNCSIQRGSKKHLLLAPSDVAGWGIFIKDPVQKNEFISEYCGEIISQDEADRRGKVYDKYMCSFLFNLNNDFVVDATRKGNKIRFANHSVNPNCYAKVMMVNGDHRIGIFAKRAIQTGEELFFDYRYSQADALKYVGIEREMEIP
purified human, His-tagged PRC2 complex, sequence (O75530 whole entry): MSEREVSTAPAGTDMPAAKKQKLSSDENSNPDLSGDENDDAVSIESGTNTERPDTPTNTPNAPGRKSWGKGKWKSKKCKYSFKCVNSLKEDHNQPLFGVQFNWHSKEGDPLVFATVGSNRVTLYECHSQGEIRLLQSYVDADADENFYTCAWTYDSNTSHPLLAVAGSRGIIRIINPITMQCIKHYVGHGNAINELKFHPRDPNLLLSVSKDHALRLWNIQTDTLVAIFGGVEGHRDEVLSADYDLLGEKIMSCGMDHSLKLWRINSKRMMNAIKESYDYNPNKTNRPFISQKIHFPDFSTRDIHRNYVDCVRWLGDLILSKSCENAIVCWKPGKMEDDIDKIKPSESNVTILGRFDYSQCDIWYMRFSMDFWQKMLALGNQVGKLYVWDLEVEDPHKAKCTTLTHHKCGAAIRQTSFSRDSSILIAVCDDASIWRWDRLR
purified human, His-tagged PRC2 complex, sequence (Q15022 whole entry partner): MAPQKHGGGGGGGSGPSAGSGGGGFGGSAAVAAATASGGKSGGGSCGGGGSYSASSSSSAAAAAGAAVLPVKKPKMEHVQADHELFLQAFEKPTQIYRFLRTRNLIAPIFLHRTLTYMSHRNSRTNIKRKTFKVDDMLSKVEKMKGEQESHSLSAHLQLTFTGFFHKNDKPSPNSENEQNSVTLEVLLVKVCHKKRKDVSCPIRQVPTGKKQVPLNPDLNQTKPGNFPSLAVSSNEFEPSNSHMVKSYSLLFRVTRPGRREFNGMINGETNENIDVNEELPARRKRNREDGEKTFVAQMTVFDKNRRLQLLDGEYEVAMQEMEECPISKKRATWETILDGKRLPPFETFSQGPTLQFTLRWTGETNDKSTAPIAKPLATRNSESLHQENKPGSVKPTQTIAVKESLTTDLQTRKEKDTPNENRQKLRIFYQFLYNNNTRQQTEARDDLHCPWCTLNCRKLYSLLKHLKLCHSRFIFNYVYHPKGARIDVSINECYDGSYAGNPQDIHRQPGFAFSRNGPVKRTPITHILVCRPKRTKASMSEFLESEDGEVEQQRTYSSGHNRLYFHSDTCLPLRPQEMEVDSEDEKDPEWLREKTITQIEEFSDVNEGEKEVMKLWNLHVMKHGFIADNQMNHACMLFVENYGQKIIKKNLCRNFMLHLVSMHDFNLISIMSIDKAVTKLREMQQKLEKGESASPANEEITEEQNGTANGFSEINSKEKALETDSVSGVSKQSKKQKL
purified human, His-tagged PRC2 complex, sequence (Q6ZN18 whole entry partner): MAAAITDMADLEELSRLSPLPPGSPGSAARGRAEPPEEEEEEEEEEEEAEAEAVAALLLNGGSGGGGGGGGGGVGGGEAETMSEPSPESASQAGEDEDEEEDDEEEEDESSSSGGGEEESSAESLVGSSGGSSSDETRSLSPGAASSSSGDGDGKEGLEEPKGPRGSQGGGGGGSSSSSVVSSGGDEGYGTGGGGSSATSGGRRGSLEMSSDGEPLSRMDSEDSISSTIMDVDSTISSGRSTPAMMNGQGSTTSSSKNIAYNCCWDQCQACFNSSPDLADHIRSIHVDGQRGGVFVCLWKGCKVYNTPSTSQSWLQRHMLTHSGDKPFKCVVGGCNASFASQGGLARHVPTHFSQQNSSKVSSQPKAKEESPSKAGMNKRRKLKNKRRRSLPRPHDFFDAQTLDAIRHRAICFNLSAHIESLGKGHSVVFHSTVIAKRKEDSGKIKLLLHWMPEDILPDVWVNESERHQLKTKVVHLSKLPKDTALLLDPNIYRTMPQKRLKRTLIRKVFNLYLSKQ
purified human, His-tagged PRC2 complex, sequence (Q09028 whole entry partner): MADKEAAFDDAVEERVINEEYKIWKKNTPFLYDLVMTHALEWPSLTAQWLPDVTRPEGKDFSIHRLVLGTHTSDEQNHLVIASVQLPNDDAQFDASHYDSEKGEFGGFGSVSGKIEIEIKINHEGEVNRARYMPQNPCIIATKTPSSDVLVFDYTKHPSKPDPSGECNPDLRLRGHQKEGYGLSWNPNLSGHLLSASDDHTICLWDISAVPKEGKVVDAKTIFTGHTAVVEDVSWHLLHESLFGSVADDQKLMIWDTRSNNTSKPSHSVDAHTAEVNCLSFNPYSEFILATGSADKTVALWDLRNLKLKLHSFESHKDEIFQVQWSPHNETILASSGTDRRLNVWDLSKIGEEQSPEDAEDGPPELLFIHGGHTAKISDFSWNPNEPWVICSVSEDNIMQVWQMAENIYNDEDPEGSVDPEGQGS
Method in brief: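 Five-subunit complex (His-EZH2, Flag-EED, His-SUZ12, His-AEBP2, His-RbAp48) at 10 nM with 0.05 mg/ml core histone H3, pH 8 Tris buffer, 1% DMSO; 20 min compound pre-incubation at 30°C. Started with 1 uM [3H]-SAM, 1 hr at 30°C; tritiated H3 counted by scintillation. Compounds diluted from 1.0 µM top concentration.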

[2] = tested on: PRC2-mediated histone H3 methylation; assay: Tri-Methyl Histone H3 (Lys 27) Sandwich ELISA in Pfeiffer cells: inhibition of PRC2-mediated histone H3 methylation; assay type: cell-based, human; conditions: Inhibition of EZH2-mediated histone H3 trimethylation, Pfeiffer cells (EZH2 A677G), 96 hours incubation
Method in brief: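 Pfeiffer DLBCL cells (EZH2 A677G mutant) treated with 3-fold serial dilutions, 1µM to 0.15 nM final, for 96 hours at 37°C. Acid (0.4M HCl) histone extracts, neutralized, assayed by H3K27me3 sandwich ELISA with HRP/TMB read at 450 nm.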

Karpas 422 cells = assay: Karpas 422 cell viability, CTG (Cell Titre Glo) assay; assay type: cell-based, human; conditions: Inhibition of proliferation of Karpas 422 cells (EZH2 Y641N), viability measured Day 4, Day 7 or Day 11, time point of the tabulated values not stated
Method in brief: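 Karpas 422 cells (EZH2 Y641N, DLBCL) plated at 1000 cells/well in RPMI with 20% FBS, exposed to compound 10µM down to 1.5nM in 3-fold steps at 37 °C. Viability by CellTiter-Glo on Days 4, 7 and 11; Day 11 plates re-fed with fresh medium and compound on Day 7. IC50 per time point.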

IC50 [1] [nM]	IC50 ([2]; Homo sapiens) [nM]	IC50 (Karpas 422 cells; Homo sapiens) [nM]	IC50 [2] [nM]	IC50 (Karpas 422 cells) [nM]	Compound
100 to 500	100 to 500	≤ 250			Cc1nn(C[C@@H](C)O)c(C)c1-c1cnc(NCc2c(F)ccc3c2CCO3)n2cc(C#N)nc12 [Example 66, (R)-5-(((5-fluoro-2,3-dihydrobenzofuran-4-yl)methyl)amino)-8-(1-(2-hydroxypropyl)-3,5-dimethyl-1H-pyrazol-4-yl)imidazo[1,2-c]pyrimidine-2-carbonitrile]
< 100	≤ 100	≤ 250			Cc1cc(-c2cnc(NCc3c(F)ccc4c3CCO4)n3cc(C(N)=O)nc23)n(C)n1 [Example 11, 8-(1,3-dimethyl-1H-pyrazol-5-yl)-5-(((5-fluoro-2,3-dihydrobenzofuran-4-yl)methyl)amino)imidazo[1,2-c]pyrimidine-2-carboxamide]
100 to 500	100 to 500	≤ 250			CNCc1ccc(-c2cnc(NCc3c(F)ccc4c3CCO4)n3cc(C#N)nc23)c(C)c1 [Example 196, 5-(((5-fluoro-2,3-dihydrobenzofuran-4-yl)methyl)amino)-8-(2-methyl-4-((methylamino)methyl)phenyl)imidazo[1,2-c]pyrimidine-2-carbonitrile]
< 100	100 to 500	250 to 500			Cc1c(C#N)cccc1-c1cnc(NCc2c(F)ccc3c2CCO3)n2cc(C#N)nc12 [Example 176, 8-(3-cyano-2-methylphenyl)-5-(((5-fluoro-2,3-dihydrobenzofuran-4-yl)methyl)amino)imidazo[1,2-c]pyrimidine-2-carbonitrile]
< 100			100 to 500	≤ 250	5-(((5-fluoro-2,3-dihydrobenzofuran-4-yl)methyl)amino)-8-(2-methyl-6-morpholinopyridin-3-yl)imidazo[1,2-c]pyrimidine-2-carbonitrile [Example 56]
< 100	≤ 100	≤ 250			CN(C)C(=O)c1ccc(-c2cnc(NCc3c(F)ccc4c3CCO4)n3cc(C#N)nc23)cc1F [Example 36, 4-(2-cyano-5-(((5-fluoro-2,3-dihydrobenzofuran-4-yl)methyl)amino)imidazo[1,2-c]pyrimidin-8-yl)-2-fluoro-N,N-dimethylbenzamide]
100 to 500	≤ 100	≤ 250			Cc1cc(CN(C)C)ccc1-c1cnc(NCc2c(F)ccc3c2CCO3)n2cc(C#N)nc12 [Example 32, 8-(4-((dimethylamino)methyl)-2-methylphenyl)-5-(((5-fluoro-2,3-dihydrobenzofuran-4-yl)methyl)amino)imidazo[1,2-c]pyrimidine-2-carbonitrile]
< 100	≤ 100	≤ 250			Cc1c(-c2cnc(NCc3c(F)ccc4c3CCO4)n3cc(C#N)nc23)cnc(CN(C)C)c1F [Example 233, 8-(6-((dimethylamino)methyl)-5-fluoro-4-methylpyridin-3-yl)-5-(((5-fluoro-2,3-dihydrobenzofuran-4-yl)methyl)amino)imidazo[1,2-c]pyrimidine-2-carbonitrile]
< 100	100 to 500	≤ 250			CN1CCc2cc(-c3cnc(NCc4c(F)ccc5c4CCO5)n4cc(C#N)nc34)ccc2C1=O [Example 168, 5-(((5-fluoro-2,3-dihydrobenzofuran-4-yl)methyl)amino)-8-(2-methyl-1-oxo-1,2,3,4-tetrahydroisoquinolin-6-yl)imidazo[1,2-c]pyrimidine-2-carbonitrile]
< 100	≤ 100	≤ 250			Cc1cc(-c2cnc(NCc3c(F)ccc4c3CCO4)n3cc(C#N)nc23)n(C)n1 [Example 86, 8-(1,3-dimethyl-1H-pyrazol-5-yl)-5-(((5-fluoro-2,3-dihydrobenzofuran-4-yl)methyl)amino)imidazo[1,2-c]pyrimidine-2-carbonitrile]
< 100			100 to 500	≤ 250	8-(4-((dimethylamino)methyl)phenyl)-5-(((5-fluoro-2,3-dihydrobenzofuran-4-yl)methyl-d2)amino)imidazo[1,2-c]pyrimidine-2-carbonitrile [Example 165]
100 to 500	100 to 500	250 to 500			COCCOc1ncc(-c2cnc(NCc3c(F)ccc4c3CCO4)n3cc(C#N)nc23)cn1 [Example 191, 5-(((5-fluoro-2,3-dihydrobenzofuran-4-yl)methyl)amino)-8-(2-(2-methoxyethoxy)pyrimidin-5-yl)imidazo[1,2-c]pyrimidine-2-carbonitrile]
100 to 500	100 to 500	≤ 250			Cn1nccc(-c2cnc(NCc3c(F)ccc4c3CCO4)n3cc(C#N)nc23)c1=O [Example 194, 5-(((5-fluoro-2,3-dihydrobenzofuran-4-yl)methyl)amino)-8-(2-methyl-3-oxo-2,3-dihydropyridazin-4-yl)imidazo[1,2-c]pyrimidine-2-carbonitrile]
< 100	100 to 500	≤ 250			COCCOc1ccc(-c2cnc(NCc3c(F)ccc4c3CCO4)n3cc(C#N)nc23)cc1 [Example 161, 5-(((5-fluoro-2,3-dihydrobenzofuran-4-yl)methyl)amino)-8-(4-(2-methoxyethoxy)phenyl)imidazo[1,2-c]pyrimidine-2-carbonitrile]
< 100	100 to 500	≤ 250			N#Cc1cn2c(NCc3c(F)ccc4c3CCO4)ncc(-c3ccnn3C3CC3)c2n1 [Example 193, 8-(1-cyclopropyl-1H-pyrazol-5-yl)-5-(((5-fluoro-2,3-dihydrobenzofuran-4-yl)methyl)amino)imidazo[1,2-c]pyrimidine-2-carbonitrile]
< 100	≤ 100	≤ 250			CN(C)C(=O)c1ccc(-c2cnc(NCc3c(F)ccc4c3CCO4)n3cc(C#N)nc23)c(Cl)c1 [Example 31, 3-chloro-4-(2-cyano-5-(((5-fluoro-2,3-dihydrobenzofuran-4-yl)methyl)amino)imidazo[1,2-c]pyrimidin-8-yl)-N,N-dimethylbenzamide]
100 to 500	100 to 500	250 to 500			N#Cc1cn2c(NCc3c(F)ccc4c3CCO4)ncc(-c3ccn(CC4CCCO4)n3)c2n1 (stereo not drawn) [Example 153, 5-(((5-fluoro-2,3-dihydrobenzofuran-4-yl)methyl)amino)-8-(1-((tetrahydrofuran-2-yl)methyl)-1H-pyrazol-3-yl)imidazo[1,2-c]pyrimidine-2-carbonitrile]
< 100	≤ 100	≤ 250			Cc1ncccc1-c1cnc(NCc2c(F)ccc3c2CCO3)n2cc(C#N)nc12 [Example 105, 5-(((5-fluoro-2,3-dihydrobenzofuran-4-yl)methyl)amino)-8-(2-methylpyridin-3-yl)imidazo[1,2-c]pyrimidine-2-carbonitrile]
100 to 500	≤ 100	≤ 250			CN1CCc2cc(-c3cnc(NCc4c(F)ccc5c4CCO5)n4cc(C#N)nc34)ccc2C1 [Example 159, 5-(((5-fluoro-2,3-dihydrobenzofuran-4-yl)methyl)amino)-8-(2-methyl-1,2,3,4-tetrahydroisoquinolin-6-yl)imidazo[1,2-c]pyrimidine-2-carbonitrile]
< 100	≤ 100	≤ 250			Cc1ccc(-c2cnc(NCc3c(F)ccc4c3CCO4)n3cc(C#N)nc23)c(C)n1 [Example 67, 8-(2,6-dimethylpyridin-3-yl)-5-(((5-fluoro-2,3-dihydrobenzofuran-4-yl)methyl)amino)imidazo[1,2-c]pyrimidine-2-carbonitrile]
< 100			≤ 100	≤ 250	5-(2-cyano-5-(((5-fluoro-2,3-dihydrobenzofuran-4-yl)methyl)amino)imidazo[1,2-c]pyrimidin-8-yl)-1-methyl-1H-pyrazole-3-carboxylic acid [Example 157]
< 100	≤ 100	≤ 250			CN(C)CCn1nccc1-c1cnc(NCc2c(F)ccc3c2CCO3)n2cc(C#N)nc12 [Example 230, 8-(1-(2-(dimethylamino)ethyl)-1H-pyrazol-5-yl)-5-(((5-fluoro-2,3-dihydrobenzofuran-4-yl)methyl)amino)imidazo[1,2-c]pyrimidine-2-carbonitrile]
100 to 500	100 to 500	≤ 250			CN(C)CCOc1ccc(-c2cnc(NCc3c(F)ccc4c3CCO4)n3cc(C#N)nc23)cc1 [Example 189, 8-(4-(2-(dimethylamino)ethoxy)phenyl)-5-(((5-fluoro-2,3-dihydrobenzofuran-4-yl)methyl)amino)imidazo[1,2-c]pyrimidine-2-carbonitrile]
100 to 500	100 to 500	250 to 500			N#Cc1cc(-c2cnc(NCc3c(F)ccc4c3CCO4)n3cc(C#N)nc23)ccn1 [Example 188, 8-(2-cyanopyridin-4-yl)-5-(((5-fluoro-2,3-dihydrobenzofuran-4-yl)methyl)amino)imidazo[1,2-c]pyrimidine-2-carbonitrile]
